Reference: ChEMBL document CHEMBL1141050, “Design and synthesis of a novel peptidomimetic inhibitor of HIV-1 Tat-TAR interactions: squaryldiamide as a new potential bioisostere of unsubstituted guanidine” (Bioorg Med Chem Lett, 2005)

Assays:
Parameters in all cases: species or system Human immunodeficiency virus 1
Protein Tat [1] = target: T1, Protein Tat (Human immunodeficiency virus type 1 group M subtype B (isolate HXB2)(HIV-1), UniProt P04608); assay: In vitro binding affinity towards Tat/TAR to determine interaction between TAR RNA and Tat peptide at room temperature using fluorescence spectrophotometer
T1 sequence (P04608 whole entry): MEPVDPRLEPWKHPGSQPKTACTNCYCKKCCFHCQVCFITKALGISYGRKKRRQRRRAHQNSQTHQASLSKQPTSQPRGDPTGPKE

Protein Tat [2] = target: T1, Protein Tat; assay: In vitro binding affinity towards Tat/TAR to determine interaction between TAR RNA and Tat peptide at room temperature using fluorescence spectrophotometer; nb denotes no binding
Protein Tat [3] = target: T1, Protein Tat; assay: In vitro binding affinity towards Tat/TAR to determine interaction between TAR RNA and Tat peptide at room temperature using fluorescence spectrophotometer; mb denotes multiple binding

Kd (Protein Tat [1]) [µM] | Structure (SMILES) | other results
741 | N=c1c(O)c(O)/c1=N\CCCC(N)COC(=O)NC(CCCN=C(N)N)COC(N)=O (configuration not stated) | –
– | N=c1c(O)c(O)/c1=N\CCCC(N)COC(=O)NC(CCCCN)COC(N)=O (configuration not stated) | Kd (Protein Tat [2]): Not Active
– | NC(=O)OCCNC(=O)CNC(=O)OC[C@@H](N)CCCN=C(N)N | Kd (Protein Tat [3]): Multiple binding
1.8 | N=C(N)NCCC[C@H](N)COC(=O)N(CCCCN)CC(=O)N[C@H](CCCCN)COC(N)=O | –
– | NCCCC[C@H](COC(N)=O)NC(=O)CN(CCCCN)C(=O)OCCN | Kd (Protein Tat [2]): Not Active
7.7 | N=c1c(O)c(O)/c1=N/CCC[C@H](N)COC(=O)N(CCCCN)CC(=O)N[C@H](CCCCN)COC(N)=O | –

Structure (SMILES) | Kd (Protein Tat [1]) [µM] | other results
NCCCC[C@H](COC(N)=O)NC(=O)CN(CCCCN)C(=O)OC[C@@H](N)CCCN=C(N)N[N+](=O)[O-] | 952 | –
